Measured values from patent US5527882A, “Polypeptide having an amino acid replaced with N-benzylglycine” (The Regents of the University of California, priority 1994, dated 1996).
Square brackets hold non-standard residues; d marks the D form. Ends that are not written are not given here. Peptide text beside a SMILES is read from it.

Tests used:
[1] = test system: pulmonary circulation; conditions: rat, in vivo
Source text: (§1) See Vavrek supra for assay methods.
Bradykinin and (NBzlGly^7)-bradykinin were virtually identical with respect to destruction (98-99%) on passage through the pulmonary circulation.

[2] = test system: rat uterus; test: Smooth muscle bioassay: rat uterus contraction; format: cell-based; conditions: bradykinin = 100%
Source text: as §1
Rat Uterus, rat uterus contraction;

[3] = test system: guinea pig ileum; test: Smooth muscle bioassay: guinea pig ileum contraction; format: cell-based; conditions: bradykinin = 100%
Source text: as §1
GP Ileum, guinea pig ileum contraction;

[4] = test system: rat blood pressure; test: Rat blood pressure assay; format: in vivo; conditions: bradykinin = 100%
Source text: | See Vavrek supra for assay methods.

Compound | Destruction [1] [%] | Smooth Muscle Rat Uterus (rat uterus contraction), potency relative to bradykinin [2] [%] | Smooth Muscle GP Ileum (guinea pig ileum contraction), potency relative to bradykinin [3] [%] | Rat Blood Pressure IA, potency relative to bradykinin ([4]; intraaortic administration) [%] | Rat Blood Pressure IV, potency relative to bradykinin ([4]; intravenous administration) [%]
NC(N)=NCCC[C@H](NC(=O)[C@H](Cc1ccccc1)NC(=O)[C@@H](Cc1ccccc1)NC(=O)[C@H](CO)NC(=O)[C@H](Cc1ccccc1)NC(=O)CNC(=O)[C@@H]1CCCN1C(=O)[C@@H]1CCCN1C(=O)[C@@H](N)CCCN=C(N)N)C(=O)O [[D-Phe^7]-Bradykinin, (D-Phe^7)-bradykinin] (H-RPPGFS[dF]FR-OH) | 36 |  |  |  | 
RPPGFSPFR [Bradykinin] |  | 100 | 100 | 100 | 100
